Measured values from US4606911A, “Pharmaceutical composition for the prevention of dental caries” (Rohto Pharmaceutical Co. Ltd., priority 1984, dated 1986).
Values after ≈ are worked out from the molar mass of the structure shown. “Also recorded” adds a separate entry of the source.

Key:
Format in all cases: cell-based
[1] = system: Streptococcus mutans OMZ 176; assay: Antibacterial activity (MIC, growth in BHI medium); set-up: key to Antibacterial activity (growth): -: grow; ±: slightly grow; +: not grow; details: for antibacterial activity to S. mutans (in words): text statement
Protocol: (§1) To a test tube was charged 3.8 ml of Brain Heart Infusion (BHI) medium, and 100 μl of a sample solution containing oleanolic, ursolic or glycyrrhetic acid and 100 μl of pre-incubated culture of bacterium selected from those listed below were added thereto. The mixture was incubated at 37° C. and then allowed to stand over night. The extent of the growth of bacterium was observed after two or five days.
Streptococcus mutans OMZ 176

[2] = system: Streptococcus salivarius ATCC 9222; assay: Antibacterial activity (MIC, growth in BHI medium); set-up: key to Antibacterial activity (growth): -: grow; ±: slightly grow; +: not grow
Protocol: as §1, with “days. The MIC value was determined for each sample and summarized in Table 2. |Streptococcus salivarius ATCC 9222” for “days.”

[3] = system: Bacillus megaterium QM B1551; assay: Antibacterial activity (MIC, growth in BHI medium); set-up: key to Antibacterial activity (growth): -: grow; ±: slightly grow; +: not grow
Protocol: as §1, with “days. The MIC value was determined for each sample and summarized in Table 2. |Bacillus megaterium QM B1551” for “days.”

[4] = system: Staphylococcus aureus 209P; assay: Antibacterial activity (MIC, growth in BHI medium); set-up: key to Antibacterial activity (growth): -: grow; ±: slightly grow; +: not grow
Protocol: as §1, with “days. The MIC value was determined for each sample and summarized in Table 2. |Staphylococcus aureus […]” for “days.”

[5] = system: Serratia marcescens IFO 12648; assay: Antibacterial activity (MIC, growth in BHI medium); set-up: key to Antibacterial activity (growth): -: grow; ±: slightly grow; +: not grow
Protocol: as §1, with “days. The MIC value was determined for each sample and summarized in Table 2. |Serratia marcescens IFO 12648” for “days.”

[6] = system: Pseudomonas aeruginosa KM338; assay: Antibacterial activity (MIC, growth in BHI medium); set-up: key to Antibacterial activity (growth): -: grow; ±: slightly grow; +: not grow
Protocol: as §1, with “days. The MIC value was determined for each sample and summarized in Table 2. |Pseudomonas aeruginosa KM338” for “days.”

[7] = system: bacterial cells; assay: Adherence of bacterial cells to the surface of an extracted tooth; details: extracted tooth suspended in a culture medium containing sucrose

Which “Antibacterial activity (growth)” value ([1]; 10 μg/ml) does the source give for `CC1(C)CC[C@]2(C(=O)O)CC[C@]3(C)C(=CC[C@@H]4[C@@]5(C)CC[C@H](O)C(C)(C)[C@@H]5CC[C@]43C)[C@@H]2C1` [Oleanolic acid] here?
Its value is “-”.

What about the “antibacterial activity at 10 μg/ml (in words)” value ([1]; 10 μg/ml) of the same compound?
The value was “ineffective for exhibiting antibacterial activity”.

What about the “Antibacterial activity (growth)” value ([1]; 25 μg/ml) of the same compound?
The value was “-”.

And the “Antibacterial activity (growth)” value ([1]; 50 μg/ml)?
Its value is “±”.

What about the “Antibacterial activity (growth)” value ([1]; 100 μg/ml) of the same compound?
Its value is “±”.

What about the “Antibacterial activity (growth)” value ([1]; 200 μg/ml) of the same compound?
Its value is “±”.

And the “Antibacterial activity (growth)” value ([1]; 400 μg/ml)?
Its value is “±”.

What about the MIC ([1]; Streptococcus mutans, OMZ176, Streptococcus mutans OMZ 176, BHI, 37° C., read-out: MIC (minimum inhibitory concentration)) of the same compound?
The MIC was 400 µg/mL (≈ 876 µM).

And the “antibacterial activity to S. mutans (in words)” value [1]?
The value was “also exhibit the selective activity on S. mutans, although the magnitude of the activity is each less than that of glycyrrthetic acid”.

What about the “antibacterial activity to S. mutans (in words)” value ([1]; listed as oleanolic acid) of the same compound?
Its value is “have both of the adherence-inhibiting activity and the selective antibacterial activity to S. mutans; also recorded: have both activities”.

What about the “Antibacterial activity (growth)” value ([2]; 10 μg/ml) of the same compound?
The value was “-”.

What about the “Antibacterial activity (growth)” value ([2]; 25 μg/ml) of the same compound?
Its value is “-”.

What about the “Antibacterial activity (growth)” value ([2]; 50 μg/ml) of the same compound?
The value was “-”.

And the “Antibacterial activity (growth)” value ([2]; 100 μg/ml)?
Its value is “-”.

And the “Antibacterial activity (growth)” value ([2]; 200 μg/ml)?
The value was “±”.

And the “Antibacterial activity (growth)” value ([2]; 400 μg/ml)?
The value was “+”.

What about the MIC ([2]; ATCC9222, Streptococcus salivarius, BHI, 37° C., read-out: MIC (minimum inhibitory concentration)) of the same compound?
The MIC was 400 µg/mL (≈ 876 µM).

What about the “Antibacterial activity (growth)” value ([3]; 10 μg/ml) of the same compound?
Its value is “-”.

And the “Antibacterial activity (growth)” value ([3]; 25 μg/ml)?
Its value is “-”.

What about the “Antibacterial activity (growth)” value ([3]; 50 μg/ml) of the same compound?
Its value is “-”.

What about the “Antibacterial activity (growth)” value ([3]; 100 μg/ml) of the same compound?
Its value is “-”.

And the “Antibacterial activity (growth)” value ([3]; 200 μg/ml)?
Its value is “-”.

And the “Antibacterial activity (growth)” value ([3]; 400 μg/ml)?
Its value is “-”.

And the MIC ([3]; Priestia megaterium, QMB1551, Bacillus megaterium, BHI, 37° C., read-out: MIC (minimum inhibitory concentration))?
The MIC was over 400 µg/mL.

And the “Antibacterial activity (growth)” value ([4]; 10 μg/ml)?
Its value is “-”.

And the “Antibacterial activity (growth)” value ([4]; 25 μg/ml)?
The value was “-”.

And the “Antibacterial activity (growth)” value ([4]; 50 μg/ml)?
Its value is “-”.

And the “Antibacterial activity (growth)” value ([4]; 100 μg/ml)?
The value was “-”.

What about the “Antibacterial activity (growth)” value ([4]; 200 μg/ml) of the same compound?
Its value is “-”.

And the “Antibacterial activity (growth)” value ([4]; 400 μg/ml)?
Its value is “-”.

What about the MIC ([4]; 209P, Staphylococcus aureus, BHI, 37° C., read-out: MIC (minimum inhibitory concentration)) of the same compound?
Its MIC is over 400 µg/mL.

What about the “Antibacterial activity (growth)” value ([5]; 10 μg/ml) of the same compound?
The value was “-”.

And the “Antibacterial activity (growth)” value ([5]; 25 μg/ml)?
Its value is “-”.

What about the “Antibacterial activity (growth)” value ([5]; 50 μg/ml) of the same compound?
The value was “-”.

And the “Antibacterial activity (growth)” value ([5]; 100 μg/ml)?
Its value is “-”.

What about the “Antibacterial activity (growth)” value ([5]; 200 μg/ml) of the same compound?
The value was “-”.

What about the “Antibacterial activity (growth)” value ([5]; 400 μg/ml) of the same compound?
The value was “-”.

And the MIC ([5]; IFO12648, Serratia marcescens, BHI, 37° C., read-out: MIC (minimum inhibitory concentration))?
Its MIC is over 400 µg/mL.

What about the “Antibacterial activity (growth)” value ([6]; 10 μg/ml) of the same compound?
Its value is “-”.

What about the “Antibacterial activity (growth)” value ([6]; 25 μg/ml) of the same compound?
Its value is “-”.

What about the “Antibacterial activity (growth)” value ([6]; 50 μg/ml) of the same compound?
Its value is “-”.

And the “Antibacterial activity (growth)” value ([6]; 100 μg/ml)?
The value was “-”.

And the “Antibacterial activity (growth)” value ([6]; 200 μg/ml)?
Its value is “-”.

And the “Antibacterial activity (growth)” value ([6]; 400 μg/ml)?
Its value is “-”.

And the MIC ([6]; KM338, Pseudomonas aeruginosa, BHI, 37° C., read-out: MIC (minimum inhibitory concentration))?
The MIC was over 400 µg/mL.

What about the “adherence of bacterial cells to the surface of an extracted tooth” value [7] of the same compound?
The value was “completely inhibited”.
